From the NIST ThermoML archive (doi:10.1016/j.jct.2014.07.018)

Assay: molar heat capacity at constant pressure
Conditions: 101.33 kPa, Vacuum adiabatic calorimetry

CCC[n+]1ccn(C)c1.[Br-] [1-methyl-3-propylimidazolium bromide]
Conditions | molar heat capacity at constant pressure [J/K/mol]
147.83 K, Crystal 2 | 133.2
148.11 K, Glass | 140.8
149.71 K, Crystal 2 | 134.1
149.83 K, Crystal 2 | 134.2
150 K, Crystal 2 | 134.3
150 K, Glass | 141.9
150.11 K, Glass | 141.9
151.82 K, Crystal 2 | 135.2
151.83 K, Crystal 2 | 135.2
152.11 K, Glass | 143.1
153.84 K, Crystal 2 | 136.2
153.93 K, Crystal 2 | 136.3
154.12 K, Glass | 144.2
155.85 K, Crystal 2 | 137.2
156.04 K, Crystal 2 | 137.3
156.13 K, Glass | 145.4
157.86 K, Crystal 2 | 138.3
158.13 K, Glass | 146.5
158.16 K, Crystal 2 | 138.4
159.86 K, Crystal 2 | 139.3
160 K, Crystal 2 | 139.3
160 K, Glass | 147.5
160.14 K, Glass | 147.6
160.27 K, Crystal 2 | 139.5
161.87 K, Crystal 2 | 140.2
162.15 K, Glass | 148.7
162.38 K, Crystal 2 | 140.6
163.88 K, Crystal 2 | 141.3
164.17 K, Glass | 149.8
164.5 K, Crystal 2 | 141.6
165.89 K, Crystal 2 | 142.3
166.18 K, Glass | 151
166.61 K, Crystal 2 | 142.6
167.9 K, Crystal 2 | 143.3
168.19 K, Glass | 152.2
168.73 K, Crystal 2 | 143.7
169.91 K, Crystal 2 | 144.4
170 K, Crystal 2 | 144.4
170 K, Glass | 153.2
170.21 K, Glass | 153.3
170.84 K, Crystal 2 | 144.8
171.92 K, Crystal 2 | 145.4
172.22 K, Glass | 154.5
172.95 K, Crystal 2 | 146.1
173.94 K, Crystal 2 | 146.6
174.24 K, Glass | 155.6
175.06 K, Crystal 2 | 147.4
175.95 K, Crystal 2 | 147.9
176.26 K, Glass | 156.8
177.17 K, Crystal 2 | 148.7
177.96 K, Crystal 2 | 149.1
178.28 K, Glass | 158
179.28 K, Crystal 2 | 149.8
179.98 K, Crystal 2 | 150.2
180 K, Crystal 2 | 150.2
180 K, Glass | 159.1
180.3 K, Glass | 159.2
181.39 K, Crystal 2 | 150.9
182 K, Crystal 2 | 151.2
182.32 K, Glass | 160.4
183.49 K, Crystal 2 | 152
184.02 K, Crystal 2 | 152.2
184.34 K, Glass | 161.7
185.6 K, Crystal 2 | 153
186.04 K, Crystal 2 | 153.2
186.37 K, Glass | 162.9
187.7 K, Crystal 2 | 154.1
188.06 K, Crystal 2 | 154.3
188.39 K, Glass | 164.2
189.8 K, Crystal 2 | 155.2
190 K, Crystal 2 | 155.3
190 K, Glass | 164.3
190.08 K, Crystal 2 | 155.3
190.42 K, Glass | 165.5
191.9 K, Crystal 2 | 156.2
192.1 K, Crystal 2 | 156.3
192.45 K, Glass | 166.9
194 K, Crystal 2 | 157.3
194.12 K, Crystal 2 | 157.4
194.48 K, Glass | 168.3
196.1 K, Crystal 2 | 158.4
196.15 K, Crystal 2 | 158.4
196.52 K, Glass | 169.7
198.17 K, Crystal 2 | 159.4
198.2 K, Crystal 2 | 159.4
198.56 K, Glass | 171.3
200 K, Crystal 2 | 160.4
200 K, Glass | 171.3
200.2 K, Crystal 2 | 160.5
200.29 K, Crystal 2 | 160.5
200.61 K, Glass | 173
202.22 K, Crystal 2 | 161.6
202.39 K, Crystal 2 | 161.7
202.66 K, Glass | 174.7
204.25 K, Crystal 2 | 162.6
204.48 K, Crystal 2 | 162.8
204.71 K, Glass | 177.1
206.28 K, Crystal 2 | 163.8
206.57 K, Crystal 2 | 163.9
206.79 K, Glass | 179.5
208.31 K, Crystal 2 | 164.9
208.66 K, Crystal 2 | 165.1
208.84 K, Glass | 183.4
210 K, Crystal 2 | 165.9
210 K, Glass | 183.6
210.35 K, Crystal 2 | 166
210.75 K, Crystal 2 | 166.3
210.87 K, Glass | 189.3
212.38 K, Crystal 2 | 167.3
212.84 K, Crystal 2 | 167.5
212.85 K, Glass | 201.5
214.41 K, Crystal 2 | 168.5
214.71 K, Liquid | 229.7
214.92 K, Crystal 2 | 168.8
216.44 K, Crystal 2 | 169.7
216.52 K, Liquid | 256.1
217 K, Crystal 2 | 170.1
218.48 K, Crystal 2 | 170.9
218.48 K, Liquid | 258.4
219.08 K, Crystal 2 | 171.3
220 K, Crystal 2 | 171.8
220 K, Liquid | 258.4
220.51 K, Crystal 2 | 172.1
220.52 K, Liquid | 259.6
221.15 K, Crystal 2 | 172.5
222.55 K, Crystal 2 | 173.3
223.22 K, Crystal 2 | 173.7
224.59 K, Crystal 2 | 174.5
225.29 K, Crystal 2 | 175
226.63 K, Crystal 2 | 175.8
227.36 K, Crystal 2 | 176.2
